Source: US9487470B2, “4-((substituted phenyl) difluoromethyl) phenoxy carboxylic acid derivative, and preparation method and uses thereof” (Zhejiang Hisun Pharmaceutical Co., Ltd., priority 2012, dated 2016)

Key:
[1] = Solubility in water (remark on the test drugs); format: physicochemical; conditions: formulated with 20% solutol
[2] = test system: hyperlipoidemia model of Goldenhamsters (blood plasma TC, TG, HDL-C, LDL-C); assay: Pharmacodynamic test group 3: effects on blood lipid levels of Goldenhamsters in a hyperlipoidemia model; format: in vivo; conditions: for HDL-C, after administration / LDL-C, after administration / TC, after administration / TG, after administration: 40 mg/kg intragastric, 1 week, high-lipid feed continued, asterisks = P vs before administration; for HDL-C, after administration / LDL-C, after administration / TC, after administration / TG, after administration / HDL-C, before administration / LDL-C, before administration / TC, before administration / TG, before administration: blood plasma, x±s; for therapeutic effect compared with fenofibrate (conclusion from table 4): fenofibrate 40 mg/kg; for HDL-C, before administration / LDL-C, before administration / TC, before administration / TG, before administration: baseline of the group before administration, high-lipid feed 2 weeks, 6 animals
Source text: (§1) Animals: 120 male Goldenhamsters, aged 8 weeks, body weight 80-100 g, provided by Vital River Laboratories, Beijing.
Kits: The kits for total cholesterol (TC), triglyceride (TG), and high density lipoprotein cholesterol (HDL-C) were provided by SYSMEX, and the kits for low density lipoprotein cholesterol (LDL-C) were provided by Shanghai Kehua Bio-engineering Co., Ltd.
(§2) Apparatus: SYSMEX Automatic Biochemistry Analyzer, Bechman centrifuge, Setoris balance.
(§3) The animals were acclimatized and fed for 1 week, ad lib, light cycle was 10 h/14 h, and then feeds with high lipid content were fed to the animals (formulation: 0.3% cholesterol, 20% palm oil, and 79.7% basic feeds). The animals were fed for 2 weeks, and were fasted at 4:00 pm of the 14th day (fasted for 16 h). At the 15th day, the animals were anaesthetized with ethyl ether, weighted, and then 0.5 ml blood was collected from vena orbitalis posterior. The blood was anticoagulated with heparin, and was centrifugated at 5000 rpm for 10 min. The blood plasma was taken, and the levels of TC, TG, HDL-C, and LDL-C in blood plasma were determined using automatic biochemistry analyzer.
(§4) During the administration, feeds with high lipid content were continuously fed to the animals. The animals were fed for 1 week, and were fasted at 4:00 pm of the 7th day. At the 8th day, the animals were anaesthetized with ethyl ether, weighted, and then 0.5 ml blood was collected from vena orbitalis posterior. The blood was anticoagulated with heparin, and was centrifugated at 5000 rpm for 10 min. The blood plasma was taken, and the levels of TC, TG, HDL-C, and LDL-C in blood plasma were determined using automatic biochemistry analyzer.
(§5) The results were represented by x±s, and t test was employed for comparing the results obtained before and after administration.

[3] = test system: hyperlipoidemia model of Goldenhamsters (blood plasma TC, TG, HDL-C, LDL-C); assay: Pharmacological test group 1: effects on blood lipid levels of Goldenhamsters in a hyperlipoidemia model; format: in vivo; conditions: for HDL-C, after administration / LDL-C, after administration / TC, after administration / TG, after administration: 40 mg/kg intragastric, 1 week, high-lipid feed continued, blood plasma, x±s, asterisks = P vs before administration
Source text: Animals: 134 male Goldenhamsters, aged 8 weeks, body weight 80-100 g, provided by Vital River Laboratories, Beijing. […] Kits: The kits for total cholesterol (TC), triglyceride (TG), and high density lipoprotein cholesterol (HDL-C) were provided by SYSMEX, and the kits for low density lipoprotein cholesterol (LDL-C) were provided by Shanghai Kehua Bio-engineering Co., Ltd. Apparatus: SYSMEX Automatic Biochemistry Analyzer, Bechman centrifuge, Setoris balance. The animals were acclimatized and fed for 1 week, ad lib, light cycle was 10 h/14 h, and then feeds with high lipid content were fed to the animals (formulation: 0.3% cholesterol, 20% palm oil, and 79.7% basic feeds). The animals were fed for 10 days, and were fasted at 4:00 pm on the 10th day (fasted for 16 h). On the 11th day, the animals were anaesthetized with ethyl ether, weighted, and then 0.5 ml blood was collected from vena orbitalis posterior. The blood was anticoagulated with heparin, and was centrifugated at 5000 rpm for 10 min. The blood plasma was taken, and the levels of TC, TG, HDL-C, and LDL-C in blood plasma were determined using automatic biochemistry analyzer. The animals were acclimatized and fed for 1 week, ad lib, light cycle was 10 h/14 h, and then feeds with high lipid content were fed to the animals (formulation: 0.3% cholesterol, 20% palm oil, and 79.7% basic feeds). The animals were fed for 2 weeks, and were fasted at 4:00 pm on the […] (fasted for 16 h). On the 22nd day, the animals were anaesthetized with ethyl ether, weighted, and then 0.5 ml blood was collected from vena orbitalis posterior. The blood was anticoagulated with heparin, and was centrifugated at 5000 rpm for 10 min. The blood plasma was taken, and the levels of TC, TG, HDL-C, and LDL-C in blood plasma were determined using automatic biochemistry analyzer. […] During the administration, feeds with high lipid content were continuously fed to the animals. The animals were fed for 1 week, and were fasted at 4:00 pm on the 7th day. On the 8th day, the animals were anaesthetized with ethyl ether, weighted, and then 0.5 ml blood was collected from vena orbitalis posterior. The blood was anticoagulated with heparin, and was centrifugated at 5000 rpm for 10 min. The blood plasma was taken, and the levels of TC, TG, HDL-C, and LDL-C in blood plasma were determined using automatic biochemistry analyzer. The results were represented by x±s, and t test was employed for comparing the results obtained before and after administration.

[4] = test system: hyperlipoidemia model of Goldenhamsters (blood plasma TC, HDL-C, LDL-C); assay: Pharmacological test group 2: effects on blood lipid levels of Goldenhamsters in hyperlipoidemia model; format: in vivo; conditions: for blood lipid-regulating effects (conclusion from table 3) / therapeutic effect compared with fenofibrate (conclusion from table 3) / effect on HDL-C, in comparison with the results before administration (in words) / effect on LDL-C, in comparison with the results before administration (in words) / effect on TC, in comparison with the results before administration (in words): 40 mg/kg; for HDL-C, after administration / LDL-C, after administration / TC, after administration: 40 mg/kg intragastric, 1 week, high-lipid feed continued, asterisks = P vs before administration; for HDL-C, after administration / LDL-C, after administration / TC, after administration / HDL-C, before administration / LDL-C, before administration / TC, before administration: blood plasma, x±s; for therapeutic effect compared with fenofibrate (conclusion from table 3): fenofibrate 40 mg/kg; for effect on HDL-C, in comparison with the results before administration (in words) / effect on LDL-C, in comparison with the results before administration (in words) / effect on TC, in comparison with the results before administration (in words): t test after vs before administration; for HDL-C, before administration / LDL-C, before administration / TC, before administration: baseline of the group before administration, high-lipid feed 2 weeks, 6 animals
Source text: as §1
Kits: The kits for total cholesterol (TC) and high density lipoprotein cholesterol (HDL-C) were provided by SYSMEX, and the kits for low density lipoprotein cholesterol (LDL-C) were provided by Shanghai Kehua Bio-engineering Co., Ltd.
as §2
as §3, with “pm on” for “pm of”, “h). On” for “h). At”, “TC,” for “TC, TG,”
as §4, with “pm on” for “pm of”, “day. On” for “day. At”, “TC,” for “TC, TG,”
as §5

[5] = 40 mg/kg, t test after vs before administration

Compound	solubility in water [1]	blood lipid-regulating effects (conclusion from table 4) ([2]; 40 mg/kg)	HDL-C, after administration [2]	LDL-C, after administration [2]	TC, after administration [2]	TG, after administration [2]	therapeutic effect compared with fenofibrate (conclusion from table 4) ([2]; 40 mg/kg)	effect on LDL-C, in comparison with the results before administration (in words) [2, 5]	effect on TC, in comparison with the results before administration (in words) [2, 5]	effect on TG, in comparison with the results before administration (in words) [2, 5]	HDL-C, before administration [2]	LDL-C, before administration [2]	TC, before administration [2]	TG, before administration [2]	regulating effects on the levels of blood lipid (conclusion from table 2) ([3]; 40 mg/kg)	HDL-C, after administration [3]	LDL-C, after administration [3]	TC, after administration [3]	TG, after administration [3]	effect on LDL-C, in comparison with the results before administration (in words) [3, 5]	other results
CC(C)OC(=O)C(C)(C)Oc1ccc(C(F)(F)c2ccc(Cl)cc2)cc1Cl [HS003-020, Isopropyl 2-(4-((4-chlorophenyl)difluoromethyl)-2-chlorophenoxy)-2-methylpropionate]	insoluble														tend to the effects of significantly decreasing TG, TC, and LDL-C	4.18 ± 0.07	1.0 ± 0.35	8.88 ± 0.44	1.19 ± 0.49	significantly decreases	effect on HDL-C, in comparison with the results before administration (in words) [3, 5]: increase; effect on TG, in comparison with the results before administration (in words) [3, 5]: significantly decreases; blood lipid-regulating effects (conclusion from table 3) [4]: excellent blood lipid-regulating effects; HDL-C, after administration [4]: 1.84 ± 0.14; LDL-C, after administration [4]: 1.42 ± 0.39; TC, after administration [4]: 10.34 ± 1.17; therapeutic effect compared with fenofibrate (conclusion from table 3) [4]: outstanding therapeutic effects, and are superior to fenofibrate; effect on HDL-C, in comparison with the results before administration (in words) [4]: significantly increases; effect on LDL-C, in comparison with the results before administration (in words) [4]: significantly decreases; effect on TC, in comparison with the results before administration (in words) [4]: significantly decreases; HDL-C, before administration [4]: 1.45 ± 0.2; LDL-C, before administration [4]: 3.94 ± 1.41; TC, before administration [4]: 14.06 ± 2.17
CC(C)OC(=O)C(C)(C)Oc1ccc(C(F)(F)c2ccccc2Cl)cc1 [HS003-014, Isopropyl 2-(4-((2-chlorophenyl)difluoromethyl)phenoxy)-2-methylpropionate]	insoluble														tend to the effects of significantly decreasing TG, TC, and LDL-C	3.55 ± 0.4	0.75 ± 0.17	8.20 ± 0.91	0.92 ± 0.25	significantly decreases	therapeutic effect compared with fenofibrate (conclusion from table 2) ([3]; 40 mg/kg, fenofibrate 40 mg/kg): outstanding therapeutical effects, and is significantly superior to fenofibrate; effect on TC, in comparison with the results before administration (in words) [3, 5]: significantly decreases; effect on TG, in comparison with the results before administration (in words) [3, 5]: significantly decreases; blood lipid-regulating effects (conclusion from table 3) [4]: excellent blood lipid-regulating effects; HDL-C, after administration [4]: 1.82 ± 0.18; LDL-C, after administration [4]: 1.39 ± 0.51; TC, after administration [4]: 9.51 ± 1; therapeutic effect compared with fenofibrate (conclusion from table 3) [4]: outstanding therapeutic effects, and are superior to fenofibrate; effect on HDL-C, in comparison with the results before administration (in words) [4]: increases; effect on LDL-C, in comparison with the results before administration (in words) [4]: significantly decreases; effect on TC, in comparison with the results before administration (in words) [4]: significantly decreases; HDL-C, before administration [4]: 1.57 ± 0.16; LDL-C, before administration [4]: 3.36 ± 1.19; TC, before administration [4]: 13.97 ± 2.27

More lines, main results first:

solubility in water [1]	Compound	blood lipid-regulating effects (conclusion from table 4) ([2]; 40 mg/kg)	HDL-C, after administration [2]	LDL-C, after administration [2]	TC, after administration [2]	TG, after administration [2]	therapeutic effect compared with fenofibrate (conclusion from table 4) ([2]; 40 mg/kg)	effect on LDL-C, in comparison with the results before administration (in words) [2, 5]	effect on TC, in comparison with the results before administration (in words) [2, 5]	effect on TG, in comparison with the results before administration (in words) [2, 5]	HDL-C, before administration [2]	LDL-C, before administration [2]	TC, before administration [2]	TG, before administration [2]	regulating effects on the levels of blood lipid (conclusion from table 2) ([3]; 40 mg/kg)	HDL-C, after administration [3]	LDL-C, after administration [3]	TC, after administration [3]	TG, after administration [3]	effect on LDL-C, in comparison with the results before administration (in words) [3, 5]	other results
insoluble	CCOC(=O)C(CC)Oc1ccc(C(F)(F)c2ccc(Cl)cc2)cc1 (stereo not drawn) [HS003-023, Ethyl 2-(4-((4-chlorophenyl)difluoromethyl)phenoxy)butyrate]	excellent blood lipid-regulating effects	2.88 ± 0.22	2.26 ± 0.38	8.49 ± 1.08	2.40 ± 0.35	outstanding therapeutic effects, and are superior to fenofibrate	significantly decreases	significantly decreases	significantly decreases	2.76 ± 0.28	2.86 ± 0.63	12.39 ± 2.38	3.91 ± 1.07							
insoluble	COC(=O)C(C)Oc1ccc(C(F)(F)c2ccc(Cl)cc2)cc1 (stereo not drawn) [HS003-024, Methyl 2-(4-((4-chlorophenyl)difluoromethyl)phenoxy) propionate]	excellent blood lipid-regulating effects	2.94 ± 0.41	1.64 ± 0.27	7.64 ± 0.46	1.92 ± 0.38	outstanding therapeutic effects, and are superior to fenofibrate	significantly decreases	significantly decreases	significantly decreases	2.76 ± 0.42	2.97 ± 0.98	12.47 ± 1.85	3.96 ± 1.15							
insoluble	COC(=O)C(CCO)Oc1ccc(C(F)(F)c2ccc(Cl)cc2)cc1 (stereo not drawn) [HS003-031, methyl 2-(4-((4-chlorophenyl)difluoromethyl)phenoxy)-4-hydroxy-butyrate]	excellent blood lipid-regulating effects		1.94 ± 0.42	11.44 ± 1.05	1.89 ± 0.38		significantly decreases		significantly decreases	2.82 ± 0.34	3.2 ± 0.83	12.61 ± 1.66	4.02 ± 1.33							effect on HDL-C, in comparison with the results before administration (in words) [2, 5]: significantly increases
